In ChEMBL document CHEMBL1201862, “PubChem BioAssay data set” (2004):
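Following 48 hours of exposure in 96-well plates, responses at five concentrations were used to interpolate endpoints linearly. At the GI50, growth is halved.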 Active and inactive are the calls of the source. Cut-off read from the data, not from the text of the source: active = GI50 up to about 1.1 µM and inactive = higher.

What was measured:
Assay in all cases: NCI-60 cell line screen, 48 h
SNB-19 = system: SNB-19
RXF 393 = system: RXF 393
NCI-H460 = system: NCI-H460
Hs-578T = system: Hs-578T
PC-3 = system: PC-3
NCI-H226 = system: NCI-H226
NCI/ADR-RES = system: NCI/ADR-RES
HOP-92 = system: HOP-92
RPMI-8226 = system: RPMI-8226
TK-10 = system: TK-10
OVCAR-8 = system: OVCAR-8
LOX IMVI = system: LOX IMVI
UACC-62 = system: UACC-62
SK-MEL-2 = system: SK-MEL-2
MOLT-4 = system: MOLT-4
SNB-75 = system: SNB-75
HOP-62 = system: HOP-62
SF-268 = system: SF-268
K562 = system: K562
NCI-H23 = system: NCI-H23
786-0 = system: 786-0
MDA-MB-435 = system: MDA-MB-435
OVCAR-4 = system: OVCAR-4
HCT-116 = system: HCT-116
CAKI-1 = system: CAKI-1
HT-29 = system: HT-29
IGROV-1 = system: IGROV-1
A498 = system: A498
SK-MEL-28 = system: SK-MEL-28
HCC 2998 = system: HCC 2998
SF-295 = system: SF-295
CCRF-CEM = system: CCRF-CEM
SR = system: SR
HCT-15 = system: HCT-15
BT-549 = system: BT-549
UO-31 = system: UO-31
MDA-MB-231 = system: MDA-MB-231
ACHN = system: ACHN
MCF7 = system: MCF7
SW-620 = system: SW-620
M14 = system: M14
EKVX = system: EKVX
UACC-257 = system: UACC-257
KM12 = system: KM12
SK-OV-3 = system: SK-OV-3
SF-539 = system: SF-539
DU-145 = system: DU-145
HL-60 = system: HL-60
U-251 = system: U-251
T47D = system: T47D
SK-MEL-5 = system: SK-MEL-5
COLO 205 = system: COLO 205
SN12C = system: SN12C
MDA-N = system: MDA-N
A549 = system: A549
Malme-3M = system: Malme-3M
NCI-H522 = system: NCI-H522
OVCAR-3 = system: OVCAR-3
OVCAR-5 = system: OVCAR-5

Compound: O=C(Nc1ccccc1)c1cc2c(cc1Cl)SC(NNCCO)=NS2(=O)=O
- GI50 (SNB-19): > 100 µM (inactive)
- GI50 (RXF 393): > 100 µM (inactive)
- GI50 (NCI-H460): > 100 µM (inactive)
- GI50 (Hs-578T): > 100 µM (inactive)
- GI50 (PC-3): > 100 µM (inactive)
- GI50 (NCI-H226): > 100 µM (inactive)
- GI50 (NCI/ADR-RES): > 100 µM (inactive)
- GI50 (HOP-92): > 100 µM (inactive)
- GI50 (RPMI-8226): > 100 µM (inactive)
- GI50 (TK-10): > 100 µM (inactive)
- GI50 (OVCAR-8): > 100 µM (inactive)
- GI50 (LOX IMVI): > 100 µM (inactive)
- GI50 (UACC-62): > 100 µM (inactive)
- GI50 (SK-MEL-2): > 100 µM (inactive)
- GI50 (MOLT-4): > 100 µM (inactive)
- GI50 (SNB-75): 99.5 µM (inactive)
- GI50 (HOP-62): > 100 µM (inactive)
- GI50 (SF-268): > 100 µM (inactive)
- GI50 (K562): > 100 µM (inactive)
- GI50 (NCI-H23): > 100 µM (inactive)
- GI50 (786-0): > 100 µM (inactive)
- GI50 (MDA-MB-435): > 100 µM (inactive)
- GI50 (OVCAR-4): > 100 µM (inactive)
- GI50 (HCT-116): > 100 µM (inactive)
- GI50 (CAKI-1): > 100 µM (inactive)
- GI50 (HT-29): > 100 µM (inactive)
- GI50 (IGROV-1): > 100 µM (inactive)
- GI50 (A498): > 100 µM (inactive)
- GI50 (SK-MEL-28): > 100 µM (inactive)
- GI50 (HCC 2998): > 100 µM (inactive)
- GI50 (SF-295): > 100 µM (inactive)
- GI50 (CCRF-CEM): > 100 µM (inactive)
- GI50 (SR): > 100 µM (inactive)
- GI50 (HCT-15): > 100 µM
- GI50 (BT-549): > 100 µM (inactive)
- GI50 (UO-31): > 100 µM (inactive)
- GI50 (MDA-MB-231): > 100 µM (inactive)
- GI50 (ACHN): > 100 µM (inactive)
- GI50 (MCF7): > 100 µM (inactive)
- GI50 (SW-620): > 100 µM (inactive)
- GI50 (M14): > 100 µM (inactive)
- GI50 (EKVX): > 100 µM (inactive)
- GI50 (UACC-257): > 100 µM (inactive)
- GI50 (KM12): > 100 µM (inactive)
- GI50 (SK-OV-3): > 100 µM (inactive)
- GI50 (SF-539): > 100 µM (inactive)
- GI50 (DU-145): > 100 µM (inactive)
- GI50 (HL-60): > 100 µM (inactive)
- GI50 (U-251): > 100 µM (inactive)
- GI50 (T47D): > 100 µM (inactive)
- GI50 (SK-MEL-5): > 100 µM (inactive)
- GI50 (COLO 205): > 100 µM (inactive)

Compound: C[C@H]1O[C@@H](c2c(O)ccc3ccccc23)C[C@@H](N(C)C)C1O (stereo partly specified)
- GI50 (SN12C): > 100 µM (inactive)
- GI50 (SNB-19): > 100 µM (inactive)
- GI50 (RXF 393): 20.7 µM (inactive)
- GI50 (NCI-H460): 52.7 µM (inactive)
- GI50 (Hs-578T): 80.4 µM (inactive)
- GI50 (PC-3): 48.3 µM (inactive)
- GI50 (NCI-H226): 43.7 µM (inactive)
- GI50 (NCI/ADR-RES): > 100 µM (inactive)
- GI50 (HOP-92): 24.2 µM (inactive)
- GI50 (TK-10): 41.3 µM (inactive)
- GI50 (OVCAR-8): > 100 µM (inactive)
- GI50 (LOX IMVI): > 100 µM (inactive)
- GI50 (UACC-62): 81.3 µM (inactive)
- GI50 (SK-MEL-2): > 100 µM (inactive)
- GI50 (SNB-75): 43.8 µM (inactive)
- GI50 (HOP-62): > 100 µM (inactive)
- GI50 (SF-268): > 100 µM (inactive)
- GI50 (K562): > 100 µM (inactive)
- GI50 (NCI-H23): > 100 µM (inactive)
- GI50 (MDA-N): > 100 µM (inactive)
- GI50 (786-0): 91.6 µM (inactive)
- GI50 (A549): > 100 µM (inactive)
- GI50 (MDA-MB-435): > 100 µM (inactive)
- GI50 (OVCAR-4): > 100 µM (inactive)
- GI50 (HCT-116): > 100 µM (inactive)
- GI50 (HT-29): 54.6 µM (inactive)
- GI50 (IGROV-1): 73.6 µM (inactive)
- GI50 (A498): 51.9 µM (inactive)
- GI50 (SK-MEL-28): 97.5 µM (inactive)
- GI50 (HCC 2998): 36.6 µM (inactive)
- GI50 (SF-295): > 100 µM (inactive)
- GI50 (CCRF-CEM): > 100 µM (inactive)
- GI50 (Malme-3M): 48 µM (inactive)
- GI50 (NCI-H522): > 100 µM (inactive)
- GI50 (HCT-15): > 100 µM
- GI50 (OVCAR-3): > 100 µM (inactive)
- GI50 (BT-549): > 100 µM (inactive)
- GI50 (UO-31): 41.4 µM (inactive)
- GI50 (MDA-MB-231): > 100 µM (inactive)
- GI50 (ACHN): > 100 µM (inactive)
- GI50 (MCF7): > 100 µM (inactive)
- GI50 (SW-620): > 100 µM (inactive)
- GI50 (M14): 78.5 µM (inactive)
- GI50 (EKVX): > 100 µM (inactive)
- GI50 (UACC-257): 26.5 µM (inactive)
- GI50 (OVCAR-5): > 100 µM (inactive)
- GI50 (SK-OV-3): > 100 µM (inactive)
- GI50 (SF-539): > 100 µM (inactive)
- GI50 (DU-145): > 100 µM (inactive)
- GI50 (HL-60): 85.1 µM (inactive)
- GI50 (U-251): > 100 µM (inactive)
- GI50 (SK-MEL-5): 40.4 µM (inactive)
- GI50 (COLO 205): 65.3 µM (inactive)

Compound: CCC1(c2ccc(N3C(=O)c4cccc5cc([N+](=O)[O-])cc(c45)C3=O)cc2)CCC(=O)NC1=O (stereo unspecified)
- GI50 (SN12C): 6.05 µM (inactive)
- GI50 (SNB-19): 35 µM (inactive)
- GI50 (RXF 393): 7.14 µM (inactive)
- GI50 (NCI-H460): 6.35 µM (inactive)
- GI50 (Hs-578T): 16.1 µM (inactive)
- GI50 (PC-3): 20.9 µM (inactive)
- GI50 (NCI-H226): 10.9 µM (inactive)
- GI50 (NCI/ADR-RES): 17 µM (inactive)
- GI50 (HOP-92): 2.16 µM (inactive)
- GI50 (RPMI-8226): 11.6 µM (inactive)
- GI50 (TK-10): 33 µM (inactive)
- GI50 (OVCAR-8): 12 µM (inactive)
- GI50 (LOX IMVI): 11.9 µM (inactive)
- GI50 (UACC-62): 21 µM (inactive)
- GI50 (SK-MEL-2): > 100 µM (inactive)
- GI50 (MOLT-4): 11.9 µM (inactive)
- GI50 (SNB-75): 7.05 µM (inactive)
- GI50 (HOP-62): 9.12 µM (inactive)
- GI50 (SF-268): 15.1 µM (inactive)
- GI50 (K562): 17.1 µM (inactive)
- GI50 (NCI-H23): 25.5 µM (inactive)
- GI50 (786-0): 7.38 µM (inactive)
- GI50 (A549): 55.5 µM (inactive)
- GI50 (MDA-MB-435): 24.3 µM (inactive)
- GI50 (OVCAR-4): 12.6 µM (inactive)
- GI50 (HCT-116): 5.42 µM (inactive)
- GI50 (CAKI-1): 14.2 µM (inactive)
- GI50 (HT-29): 20.5 µM (inactive)
- GI50 (IGROV-1): 5.4 µM (inactive)
- GI50 (A498): 10.1 µM (inactive)
- GI50 (SK-MEL-28): 22.2 µM (inactive)
- GI50 (HCC 2998): 30.7 µM (inactive)
- GI50 (SF-295): 15.9 µM (inactive)
- GI50 (CCRF-CEM): 7.74 µM (inactive)
- GI50 (Malme-3M): 20.1 µM (inactive)
- GI50 (NCI-H522): 1.81 µM (inactive)
- GI50 (HCT-15): 31 µM
- GI50 (OVCAR-3): 20.7 µM (inactive)
- GI50 (BT-549): 13.5 µM (inactive)
- GI50 (UO-31): 4.44 µM (inactive)
- GI50 (MDA-MB-231): 5.16 µM (inactive)
- GI50 (ACHN): 11.5 µM (inactive)
- GI50 (MCF7): 29.9 µM (inactive)
- GI50 (SW-620): 11.4 µM (inactive)
- GI50 (M14): 61.5 µM (inactive)
- GI50 (EKVX): 11.7 µM (inactive)
- GI50 (UACC-257): 47.6 µM (inactive)
- GI50 (OVCAR-5): 60.8 µM (inactive)
- GI50 (KM12): > 100 µM (inactive)
- GI50 (SK-OV-3): 15 µM (inactive)
- GI50 (SF-539): > 10 µM (inactive)
- GI50 (DU-145): > 44.9 µM (inactive)
- GI50 (U-251): 9.84 µM (inactive)
- GI50 (T47D): 24.4 µM (inactive)
- GI50 (SK-MEL-5): 90.4 µM (inactive)
- GI50 (COLO 205): 9.57 µM (inactive)
